Source: PMC6934184, “Selective DNA-PKcs inhibition extends the therapeutic index of localized radiotherapy and chemotherapy” (The Journal of Clinical Investigation, 2019)

Target: T1, MAPK3 (ERK1) (Homo sapiens, UniProt P27361)
T1 construct: purchased Thermo Fisher Scientific (Life Technologies) SelectScreen
Test: SelectScreen Z'LYTE
Type: biochemical
In short: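 Percent values come from Thermo SelectScreen profiling of NU5455, combining activity and binding assays. CSF1R was run in Z'LYTE format at Km app ATP, and CAMK1 in Adapta format with ATP listed at 10.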

T1 sequence (P27361 whole entry): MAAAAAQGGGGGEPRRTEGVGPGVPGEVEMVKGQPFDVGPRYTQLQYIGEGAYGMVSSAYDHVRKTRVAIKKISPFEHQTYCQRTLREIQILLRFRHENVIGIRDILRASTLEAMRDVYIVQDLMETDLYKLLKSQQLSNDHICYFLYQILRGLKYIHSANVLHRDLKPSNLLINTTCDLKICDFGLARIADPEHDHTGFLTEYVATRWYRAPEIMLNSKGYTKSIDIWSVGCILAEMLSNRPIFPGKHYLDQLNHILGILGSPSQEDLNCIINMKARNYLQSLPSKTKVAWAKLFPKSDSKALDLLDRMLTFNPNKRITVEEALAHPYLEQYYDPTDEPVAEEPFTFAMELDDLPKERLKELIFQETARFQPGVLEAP

CN(C(=O)CN1CCOCC1)c1ccc2sc3c(-c4cccc5c(=O)cc(N6CC7CCC(C6)O7)oc45)cccc3c2c1 [NU5455]
inhibition at 1 µM: 9.5%
